Measurements as given in patent US20120277257A1, “Methods of Treating Diseases, Pharmaceutical Compositions, and Pharmaceutical Dosage Forms” (MYREXIS, INC., priority 2009, published 2012).

Columns and labels:
[1] = test system: MIA PaCa-2 pancreatic cancer; experiment: MIA PaCa-2 pancreatic cancer xenograft; settings: 100 mg/kg ip, weekly, Day 15
[2] = test system: NCI-N87 Her2+ gastric cancer; experiment: NCI-N87 (Her2+) gastric cancer xenograft in athymic nude mice; type: in vivo; settings: 40 mg/kg oral, thrice weekly for three weeks, day 21
Experimental: The efficacy of Compound 1 was compared to that of SNX-5422 (Serenex, Pfizer, Inc.) on the growth of NCI-N87 (Her2+) human gastric cancer cells as a xenograft in athymic nude mice model. Animals were dosed with either 200 mg/kg of Compound 1 on days 1 through 21 or 40 mg/kg of SNX-5422 thrice weekly for three weeks. Tumor volumes and body weights were determined from Days 1 to 39.
Five million NCI-N87 cells were implanted subcutaneously in the right flank of female nude mice (Hsd:athymic nude-Foxn1^nu). When the median tumor volume was approximately 123 mm^3, mice were randomized into three cohorts of ten animals. One cohort was dosed orally with vehicle, one cohort was dosed orally with Compound 1 (200 mg/kg) formulated in vehicle, and one cohort was dosed orally with SNX-5422 (40 mg/kg) formulated in dimethylacetamide/polyethylene glycol 300. Vehicle and Compound 1 were administered on days 1-21 and SNX-5422 was administered thrice weekly on Days 1, 3, 5, 8, 10, 12, 15, 17 and 19. The mice were observed daily for mortality and signs of toxicity.
Xenografted mice bearing N-87 tumors (median volume ˜125 mm^3) were dosed orally with Compound 1 for three weeks with the dosing schedules indicated in FIG. 4.
Additionally, xenografted mice bearing N-87 tumors (median volume ˜115 mm^3) were dosed orally with Compound 1 for twenty-one days at 200 mg/kg, once daily or 100 mg/kg, twice-daily as indicated in FIG. 5. Tumor growth inhibition (TGI) was monitored up to Day 39.

[3] = test system: A549 non-small cell lung cancer; experiment: A549 non-small cell lung cancer xenograft; type: in vivo, mice; settings: maximum tolerated dose, oral once daily for 21 days, Day 22

O=c1[nH]cc(F)c(=O)[nH]1 [5-Fluorouracil, reference compound]
TGI (tumor growth inhibition) [1]: 58%

CC1(C)CC(=O)c2c(C(F)(F)F)nn(-c3ccc(C(N)=O)c(N[C@H]4CC[C@H](OC(=O)CN)CC4)c3)c2C1 [SNX-5422, reference compound]
decrease in median tumor volume [2]: 22%

C#Cc1cccc(Nc2ncnc3cc(OCCOC)c(OCCOC)cc23)c1 [erlotinib]
TGI (tumor growth inhibition) [3]: 88%
